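Protocol summary: plate cells (96-well), add compound at 5 concentrations, incubate 48 h, interpolate endpoints linearly. The concentration for 50% growth inhibition is given as GI50.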 Activity calls are given as the source filed them. Cut-off read from the data, not from the text of the source: active = GI50 up to about 1.1 µM and inactive = higher.
Columns and labels:
Test in all cases: DTP human tumour cell line panel, 48 h
SK-MEL-2 = system: SK-MEL-2
NCI-H226 = system: NCI-H226
UACC-257 = system: UACC-257
ACHN = system: ACHN
NCI-H460 = system: NCI-H460
K562 = system: K562
HCT-116 = system: HCT-116
SNB-19 = system: SNB-19
IGROV-1 = system: IGROV-1
M19-MEL = system: M19-MEL
UO-31 = system: UO-31
SK-MEL-5 = system: SK-MEL-5
DMS-273 = system: DMS-273
MOLT-4 = system: MOLT-4
RPMI-8226 = system: RPMI-8226
COLO 205 = system: COLO 205
NCI-H522 = system: NCI-H522
OVCAR-4 = system: OVCAR-4
HCC 2998 = system: HCC 2998
KM12 = system: KM12
HT-29 = system: HT-29
HCT-15 = system: HCT-15
SF-268 = system: SF-268
HOP-62 = system: HOP-62
UACC-62 = system: UACC-62
NCI-H23 = system: NCI-H23
LXFL 529 = system: LXFL 529
SK-MEL-28 = system: SK-MEL-28
M14 = system: M14
OVCAR-3 = system: OVCAR-3
Malme-3M = system: Malme-3M
A549 = system: A549
U-251 = system: U-251
786-0 = system: 786-0
KM-20L2 = system: KM-20L2
LOX IMVI = system: LOX IMVI
CCRF-CEM = system: CCRF-CEM
DMS-114 = system: DMS-114
XF498 = system: XF498
EKVX = system: EKVX
OVCAR-5 = system: OVCAR-5
CAKI-1 = system: CAKI-1
SNB-78 = system: SNB-78
OVCAR-8 = system: OVCAR-8
SF-295 = system: SF-295
SNB-75 = system: SNB-75
SN12C = system: SN12C
SR = system: SR
HOP-18 = system: HOP-18
SW-620 = system: SW-620
DLD-1 = system: DLD-1
SF-539 = system: SF-539
TK-10 = system: TK-10
RXF 393 = system: RXF 393
HL-60 = system: HL-60
SK-OV-3 = system: SK-OV-3
HOP-92 = system: HOP-92
A498 = system: A498

## O=C1c2nn(-c3ccccc3)nc2C(c2ccccc2)N1c1ccccc1 (stereo unspecified)
SK-MEL-2
  GI50: > 100 µM (inactive)
NCI-H226
  GI50: 34 µM (inactive)
UACC-257
  GI50: > 100 µM (inactive)
ACHN
  GI50: > 100 µM (inactive)
NCI-H460
  GI50: > 100 µM (inactive)
K562
  GI50: > 100 µM (inactive)
HCT-116
  GI50: > 100 µM (inactive)
SNB-19
  GI50: > 100 µM (inactive)
IGROV-1
  GI50: 77.6 µM (inactive)
M19-MEL
  GI50: > 100 µM (inactive)
UO-31
  GI50: > 100 µM (inactive)
SK-MEL-5
  GI50: > 100 µM (inactive)
DMS-273
  GI50: > 100 µM (inactive)
MOLT-4
  GI50: > 100 µM (inactive)
RPMI-8226
  GI50: > 100 µM (inactive)
COLO 205
  GI50: > 100 µM (inactive)
NCI-H522
  GI50: > 100 µM (inactive)
OVCAR-4
  GI50: > 100 µM (inactive)
HCC 2998
  GI50: > 100 µM (inactive)
KM12
  GI50: > 100 µM (inactive)
HT-29
  GI50: > 100 µM (inactive)
HCT-15
  GI50: > 100 µM
SF-268
  GI50: > 100 µM (inactive)
HOP-62
  GI50: 28.3 µM (inactive)
UACC-62
  GI50: > 100 µM (inactive)
NCI-H23
  GI50: > 100 µM (inactive)
LXFL 529
  GI50: > 100 µM (inactive)
SK-MEL-28
  GI50: > 100 µM (inactive)
M14
  GI50: > 100 µM (inactive)
OVCAR-3
  GI50: > 100 µM (inactive)
Malme-3M
  GI50: > 100 µM (inactive)
A549
  GI50: > 100 µM (inactive)
U-251
  GI50: 95.3 µM (inactive)
786-0
  GI50: 33.3 µM (inactive)
KM-20L2
  GI50: > 100 µM (inactive)
LOX IMVI
  GI50: > 100 µM (inactive)
CCRF-CEM
  GI50: > 100 µM (inactive)
DMS-114
  GI50: > 100 µM (inactive)
XF498
  GI50: > 100 µM (inactive)
EKVX
  GI50: > 100 µM (inactive)
OVCAR-5
  GI50: > 100 µM (inactive)
CAKI-1
  GI50: > 100 µM (inactive)
SNB-78
  GI50: 28.1 µM (inactive)
OVCAR-8
  GI50: 52.8 µM (inactive)
SF-295
  GI50: 41.7 µM (inactive)
SNB-75
  GI50: 25 µM (inactive)
SN12C
  GI50: > 100 µM (inactive)
SR
  GI50: > 100 µM (inactive)
HOP-18
  GI50: > 100 µM (inactive)
SW-620
  GI50: > 100 µM (inactive)
DLD-1
  GI50: > 100 µM (inactive)
SF-539
  GI50: 59.8 µM (inactive)

## C#C[C@]1(O)CCC2C3CCc4cc(Oc5nc(F)nc(-c6c7cc8ccccc8cc7c7n6CCS7)n5)ccc4C3CCC21C (stereo partly specified)
SK-MEL-2
  GI50: 28.8 µM (inactive)
NCI-H226
  GI50: > 100 µM (inactive)
UACC-257
  GI50: 77.6 µM (inactive)
TK-10
  GI50: 71.3 µM (inactive)
ACHN
  GI50: > 100 µM (inactive)
NCI-H460
  GI50: 33.1 µM (inactive)
RXF 393
  GI50: 28.1 µM (inactive)
K562
  GI50: 37.7 µM (inactive)
HCT-116
  GI50: 33 µM (inactive)
SNB-19
  GI50: > 100 µM (inactive)
IGROV-1
  GI50: 50.7 µM (inactive)
M19-MEL
  GI50: 30.3 µM (inactive)
UO-31
  GI50: > 100 µM (inactive)
SK-MEL-5
  GI50: 25.4 µM (inactive)
DMS-273
  GI50: 23.8 µM (inactive)
MOLT-4
  GI50: 49.8 µM (inactive)
RPMI-8226
  GI50: 41.5 µM (inactive)
COLO 205
  GI50: 20.6 µM (inactive)
NCI-H522
  GI50: 21.3 µM (inactive)
HCC 2998
  GI50: 85.5 µM (inactive)
HL-60
  GI50: 36.7 µM (inactive)
KM12
  GI50: 33.1 µM (inactive)
HT-29
  GI50: 26.2 µM (inactive)
SF-268
  GI50: 56.9 µM (inactive)
HOP-62
  GI50: 43.3 µM (inactive)
UACC-62
  GI50: 20.8 µM (inactive)
NCI-H23
  GI50: 54.1 µM (inactive)
LXFL 529
  GI50: 39.5 µM (inactive)
SK-OV-3
  GI50: 45.4 µM (inactive)
SK-MEL-28
  GI50: 48.9 µM (inactive)
M14
  GI50: 29.2 µM (inactive)
OVCAR-3
  GI50: 44.7 µM (inactive)
Malme-3M
  GI50: 53.6 µM (inactive)
A549
  GI50: 41.3 µM (inactive)
HOP-92
  GI50: > 100 µM (inactive)
U-251
  GI50: 39.4 µM (inactive)
786-0
  GI50: 51.8 µM (inactive)
KM-20L2
  GI50: 32.7 µM (inactive)
LOX IMVI
  GI50: 43 µM (inactive)
CCRF-CEM
  GI50: 49.3 µM (inactive)
DMS-114
  GI50: 21.5 µM (inactive)
XF498
  GI50: > 100 µM (inactive)
EKVX
  GI50: 11.4 µM (inactive)
SNB-78
  GI50: > 100 µM (inactive)
OVCAR-8
  GI50: 53.8 µM (inactive)
SF-295
  GI50: 34 µM (inactive)
SNB-75
  GI50: 32.9 µM (inactive)
SN12C
  GI50: 41.5 µM (inactive)
HOP-18
  GI50: > 100 µM (inactive)
SW-620
  GI50: 44.3 µM (inactive)
DLD-1
  GI50: 54.6 µM (inactive)
SF-539
  GI50: 30.1 µM (inactive)

## CC1CCC(C(C)(C)c2ccccc2)C(=O)C1 (stereo unspecified)
SK-MEL-2
  GI50: > 100 µM (inactive)
UACC-257
  GI50: > 100 µM (inactive)
TK-10
  GI50: > 100 µM (inactive)
ACHN
  GI50: > 100 µM (inactive)
A498
  GI50: > 100 µM (inactive)
NCI-H460
  GI50: > 100 µM (inactive)
K562
  GI50: > 100 µM (inactive)
HCT-116
  GI50: > 100 µM (inactive)
SNB-19
  GI50: > 100 µM (inactive)
IGROV-1
  GI50: > 100 µM (inactive)
M19-MEL
  GI50: > 100 µM (inactive)
UO-31
  GI50: 18.3 µM (inactive)
SK-MEL-5
  GI50: > 100 µM (inactive)
DMS-273
  GI50: > 100 µM (inactive)
MOLT-4
  GI50: > 100 µM (inactive)
RPMI-8226
  GI50: 95.3 µM (inactive)
COLO 205
  GI50: > 100 µM (inactive)
OVCAR-4
  GI50: > 100 µM (inactive)
HCC 2998
  GI50: > 100 µM (inactive)
HL-60
  GI50: 25.6 µM (inactive)
KM12
  GI50: > 100 µM (inactive)
HT-29
  GI50: > 100 µM (inactive)
HCT-15
  GI50: > 100 µM
SF-268
  GI50: > 100 µM (inactive)
HOP-62
  GI50: > 100 µM (inactive)
UACC-62
  GI50: > 100 µM (inactive)
LXFL 529
  GI50: > 100 µM (inactive)
SK-OV-3
  GI50: > 100 µM (inactive)
M14
  GI50: > 100 µM (inactive)
OVCAR-3
  GI50: > 100 µM (inactive)
Malme-3M
  GI50: > 100 µM (inactive)
A549
  GI50: > 100 µM (inactive)
HOP-92
  GI50: 18.7 µM (inactive)
U-251
  GI50: > 100 µM (inactive)
786-0
  GI50: > 100 µM (inactive)
KM-20L2
  GI50: > 100 µM (inactive)
LOX IMVI
  GI50: > 100 µM (inactive)
CCRF-CEM
  GI50: > 100 µM (inactive)
DMS-114
  GI50: 75.7 µM (inactive)
XF498
  GI50: > 100 µM (inactive)
EKVX
  GI50: > 100 µM (inactive)
OVCAR-5
  GI50: > 100 µM (inactive)
CAKI-1
  GI50: 74.8 µM (inactive)
SNB-78
  GI50: > 100 µM (inactive)
OVCAR-8
  GI50: > 100 µM (inactive)
SF-295
  GI50: > 100 µM (inactive)
SNB-75
  GI50: > 100 µM (inactive)
SN12C
  GI50: > 100 µM (inactive)
HOP-18
  GI50: 24.8 µM (inactive)
SW-620
  GI50: > 100 µM (inactive)
DLD-1
  GI50: > 100 µM (inactive)
SF-539
  GI50: > 100 µM (inactive)

— ChEMBL document CHEMBL1201862, “PubChem BioAssay data set” (2004)
